Source: the supplement of paper PMC10307832

Assays:
Assay in all cases: relative viability (nuclei count vs DMSO), 5 days (fraction); higher = more cells survive
[1] = compound: CC[C@@H]1C(=O)N(C)c2cnc(Nc3ccc(C(=O)NC4CCN(C)CC4)cc3OC)nc2N1C1CCCC1 [BI-2536] + Nc1ncn([C@H]2C[C@H](O)[C@@H](CO)O2)c(=O)n1 [Decitabine] (partner 2 µM)
Outline: (§1)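 Medians of duplicate plates are given as relative viability. That measure is the nuclei count in treated wells divided by the count in vehicle wells. Counts were taken on 4× images of lung cancer cell lines in 1536-well plates, 5 days after pin-tool dosing the day after seeding with one drug alone or a fixed anchor-drug dose plus five library-drug doses (not always all listed) in √10 steps.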

[2] = compound: CC1CC(=O)N(C2=CN=C(N=C2N1C3CCCC3)NC4=C(C=C(C=C4)C(=O)NC5CCN(CC5)C)OC)C [NPK76-II-72-1] + NC(=O)Nc1cc(-c2cccc(F)c2)sc1C(=O)N[C@H]1CCCNC1 [AZD7762] (partner 0.2 µM)
Outline: as §1

[3] = compound: CC[C@@H]1C(=O)N(C)c2cnc(Nc3ccc(C(=O)NC4CCN(C)CC4)cc3OC)nc2N1C1CCCC1 [BI-2536] + C[C@@H](Oc1cc(-c2cnn(C3CCNCC3)c2)cnc1N)c1c(Cl)ccc(F)c1Cl [Crizotinib] (partner 1 µM)
Outline: as §1

[4] = compound: CC1CC(=O)N(C2=CN=C(N=C2N1C3CCCC3)NC4=C(C=C(C=C4)C(=O)NC5CCN(CC5)C)OC)C [NPK76-II-72-1] + CC(=O)c1c(C)c2cnc(Nc3ccc(N4CCNCC4)cn3)nc2n(C2CCCC2)c1=O [Palbociclib] (partner 0.5 µM)
Outline: as §1

Cell Line	relative viability ([1]; first compound 0.01 µM)	relative viability ([1]; first compound 0.03162 µM)	relative viability ([1]; first compound 0.1 µM)	relative viability ([1]; first compound 0.3162 µM)	relative viability ([1]; first compound 1 µM)	relative viability ([2]; first compound 0.01 µM)	relative viability ([2]; first compound 0.03162 µM)	relative viability ([2]; first compound 0.1 µM)	relative viability ([2]; first compound 0.3162 µM)	relative viability ([2]; first compound 1 µM)	relative viability ([3]; first compound 0.01 µM)	relative viability ([3]; first compound 0.03162 µM)	relative viability ([3]; first compound 0.1 µM)	relative viability ([3]; first compound 0.3162 µM)	relative viability ([3]; first compound 1 µM)	relative viability ([4]; first compound 0.01 µM)	relative viability ([4]; first compound 0.03162 µM)	relative viability ([4]; first compound 0.1 µM)	relative viability ([4]; first compound 0.3162 µM)	relative viability ([4]; first compound 1 µM)
NCI-H1944	0.454	0.444	0.399	0.168	0.192	0.456	0.509	0.779	0.572	0.595	1.14	1.3	1.21	0.184	0.147	0.335	0.35	0.305	0.301	0.376
NCI-H460	0.596	0.486	0.114	0.0205	0.0215	0.631	0.652	0.666	0.555	0.75	0.966	0.842	0.0283	0.0109	0.0112	0.157	0.105	0.225	0.121	0.219
EKVX	0.303	0.333	0.288	0.164	0.169	0.672	0.629	0.718		0.83	1.01	0.745	1.07	0.217	0.147	0.334	0.401	0.368		0.464
NCI-H358	0.204	0.187	0.0935	0.0948	0.112	0.521	0.525	0.611		0.683	0.446	0.259	0.22	0.173	0.139	0.131	0.186	0.165		0.126
EPLC-272H	0.359	0.363	0.258	0.0826	0.131	0.183	0.207	0.22	0.254	0.208	0.901	0.577		0.0723	0.093	0.332	0.339	0.335	0.329	0.369
NCI-H2126	0.547	0.591	0.492	0.247	0.244	0.95	1.07	0.99	0.989	1.01	1.04	0.85	0.85	0.341	0.253	0.338	0.348	0.331	0.347	0.345
LXF-289	0.382	0.376	0.363	0.0762	0.1	1.07	1.12	0.992	1.1	1.08	0.822	0.693	0.456	0.0566	0.0678	0.594	0.58	0.562	0.577	0.633
NCI-H2405	0.721	0.662	0.387	0.307	0.392	0.689	0.775	0.728	0.746	0.705	0.807	0.778	0.532	0.223	0.312	0.528	0.554	0.514	0.514	0.561
